“Also recorded” adds a separate entry of the source.
Tests used:
[1] = tested on: TGFβ-dependent myofibroblast formation in primary human fibroblasts; assay: Myofibroblast formation assay in primary human fibroblasts (morphology, Western blot) for Spectrum hits; assay type: cell-based
Experimental: Using the lowest effective dose from the secondary screening assay, PPT (5 μM), ASC (1 μM), BTS (1 μM), and AXD (1 μM) were compared to 0.1 μM SNC using primary human fibroblasts (FIG. 13). The myofibroblast formation assay consists of the following protocol: fibroblasts are treated with the aforementioned small molecules and treated with TGFβ (1 ng/ml) for 72 hours. The cells were then either photographed for morphological analysis or collected, lysed and analyzed by Western blot for the myofibroblast markers alpha-smooth muscle actin (αSMA) and calponin. β-tubulin was used as a loading control.
PPT was used at 1 and 5 μM (lanes 3 and 4), BTS was used at 0.1 and 1 μM (lanes 5 and 6), ASC was used at 0.1 and 1 μM (lanes 7 and 8), SNC was used at 100 nM and 1 μM (lanes 9 and 10), and AXD was used at 0.1 and 1 μM (lanes 11 and 12).

human fibroblasts = assay: BrdU incorporation assay (cell proliferation); assay type: cell-based; conditions: for basal fibroblast proliferation (BrdU incorporation): 250 nM, without TGFβ
Experimental: Human fibroblasts were seeded on a 96-well plate at a density of 1×10^5 cells/well. Cells were treated in triplicate. Cell proliferation was determined using the bromodeoxyuridine (BrdU) assay following manufacturer's instructions. Briefly, cells were treated with a BrdU label at a 1:2000 dilution for 24 h after the initial 72 h treatment with TGFβ+/−drugs. BrdU incorporation was measured using the BrdU Cell Proliferation Assay kit (Calbiochem, San Diego, Calif.) at 450-540 nm using a Varioskan microplate reader.
While salinomycin and other polyether ionophores blocked myofibroblast formation, it was next assessed whether these effects were a result of toxicity and/or due to a block of cell proliferation. Though the treatment doses are relatively low (efficacy in 100-250 nM range), a loss of cell viability could still be a possibility. To test this, human fibroblasts were treated with vehicle (DMSO), 50-250 nM salinomycin alone, TGFβ or TGFβ plus 250 nM salinomycin. As a positive control, fibroblasts were treated with the cytotoxic drug, puromycin. Treated cells were cultured in the presence of alamar blue reagent, which measures mitochondrial oxidation-reduction (REDOX) potential and serves as a quantitative viability sensor. After 72 hours of culture, alamar blue fluorescence was measured to assay cell viability (FIG. 4A). […] It was also tested whether salinomycin affects basal fibroblast proliferation. To address this, cells were treated with vehicle or 250 nm of either salinomycin or narasin for 24 hours in the presence of bromodeoxyuridine (BrdU) to measure cell proliferation ([…], first three bars). […] BrdU was also added to cells treated with TGFβ in the presence or absence of 250 nM salinomycin or narasin (FIG. 4B, last three bars). As expected, TGFβ induced human fibroblast proliferation. Remarkably, both salinomycin and narasin were able to beneficially block TGFβ induced proliferation by 4 to 5 fold, without affecting basal proliferation levels.

capsular fibroblasts = assay: Breast implant capsular fibroblasts treated with TGF-β and salinomycin (Western blot, slot blot, morphology); assay type: cell-based, human; conditions: for Thy1 expression: 250 nM, untreated and TGF-β (2.5 ng/mL) treated cultures
Experimental: FIG. 9 is a set of images of capsular fibroblasts explanted from primary tissue samples cultured in vitro. Treatment consisted of 48 hours growth in serum-starved media (0.1% fetal bovine serum), followed by administration of vehicle, 2.5 ng/mL transforming growth factor-beta (TGF-β), 250 nM salinomycin (SNC), or TGF-β plus SNC for 72 hours. […] Original magnification 200×.
After treatment, cells were lysed for protein extraction and analysis via Western blot. Data are presented in graph form (FIG. 10A) and as images of Western blots (FIG. 10B). […] All protein expression is relative to β-tubulin levels. At time of cell harvest, media supernatant was also taken and equal volumes run on a slot blot to compare presence of extracellular soluble collagen. In like manner, collagen I increased with TGF- and was reduced with co-administration of SNC. **=p<0.01; ***=p<0.001; ****=p<0.0001.
Peri-implant tissue samples from irradiated (n=4) and non-irradiated (n=9) breast capsules were analyzed for expression of Thy1 mRNA by qRT-PCR (FIG. 8). Additionally, capsular fibroblasts were grown in vitro and treated with the pro-fibrotic cytokine transforming growth factor-β (TGFβ) and the polyether ionophore salinomycin, and analyzed for expression of Thy1, αSMA, fibronectin, and collagen by Western blot (FIG. 9 and FIGS. 10A-B). To investigate the fundamental role of Thy1 in capsular fibroblast/myofibroblast formation, Thy1 expression was depleted using Thy1 siRNA (delivered by lentiviral transduction) (FIGS. 11A-B).

[2] = 250 nM plus TGF-β 2.5 ng/mL, 72 hours

In the case of `CC[C@@H](C(=O)[C@@H](C)[C@@H](O)[C@H](C)[C@@H]1O[C@@H]([C@@H](CC)C(=O)O)CC[C@@H]1C)[C@H]1O[C@]2(C=C[C@@H](O)[C@]3(CC[C@@](C)([C@H]4CC[C@](O)(CC)[C@H](C)O4)O3)O2)[C@H](C)C[C@@H]1C` [salinomycin], the “α-SMA and calponin expression in human fibroblasts” value ([1]; FIG. 14 lanes: PPT 1, 5 uM, BTS, ASC, AXD 0.1, 1 uM, SNC 100 nM, 1 uM) is reported as “inhibit β-dependent α-SMA and calponin expression”, the “expression of Thy1” value ([1]; both doses, 100 nM and 1 μM) is reported as “inhibits expression of Thy1” and the “TGFβ-dependent αSMA and calponin (marker) expression” value ([1]; lower dose, 100 nM) is reported as “effective even at the lower dose”. For the same compound, the “myofibroblast formation / phenotype” value ([1]; lowest effective dose from secondary screen: PPT 5 μM, ASC, BTS, AXD 1 μM, SNC 0.1 μM, TGFβ 1 ng/ml, 72 hours) was “inhibit myofibroblast phenotype”, the “TGFβ induced proliferation (BrdU incorporation)” value (human fibroblasts; 250 nM plus TGFβ) was “significantly blocked TGFβ induced proliferation” and the “basal fibroblast proliferation (BrdU incorporation)” value (human fibroblasts) was “Neither salinomycin nor narasin blocked basal fibroblast proliferation”. The “basal fibroblast proliferation (BrdU incorporation)” value (human fibroblasts; listed as Salinomycin) was “did not affect basal fibroblast proliferation”, the Alpha-SMA expression (capsular fibroblasts; [2]) was “below basal levels” and the “cell morphology (myofibroblastic differentiation)” value (capsular fibroblasts; [2]) was “appears to reduce the effect of TGF-β”. For the same compound, the Thy1 expression (capsular fibroblasts; 72 hours) was “dramatically reduced”, the Thy1 expression (capsular fibroblasts; 72 hours, listed as SNC) was “significantly reduced” and the “TGFβ-increased αSMA and collagen I” value (capsular fibroblasts; explanted capsular fibroblasts, TGFβ plus salinomycin) was “nearly completely inhibited; also recorded: reduced”.
